Test results as given in US9782399B2, “Pharmaceutical compositions which inhibit FKBP52-mediated regulation of androgen receptor function and methods of using same” (The United States of America, as represented by the …, priority 2009, dated 2017).

Test system: FKBP52-enhanced AR function
Experiment: AR-mediated luciferase reporter assay in 52KO MEF cells
Assay type: cell-based, murine
Conditions: compound 1 hour, then DHT 16 hours
Description: FIG. 5B is a bar graph showing data from an experiment where 52KO MEF cells were treated at 50% confluency with a range of concentrations of Compound 2, and cell numbers were counted by trypan blue exclusion after 24 hours. FIG. 5C depicts Western blots on the same cell lysates from FIG. 5B, with compound 2 concentrations starting at 0, and increasing from about 0.1, 1, 10, to 100 μM.
To further characterize the compounds of interest selected from the yeast library assay, the inventors created a mammalian model system, comprising a receptor-mediated luciferase reporter assay, using in a murine embryonic fibroblast cell line (MEF) which has the gene for FKBP52 knocked out (52KO MEFs). […] To control for specificity and general toxicity, the inventors assessed the effects of the inhibitors on receptor function in the absence of FKBP52. […] The half maximal lethal dose (LD50) was also determined for all cell types used in these studies. The LD50 was determined by performing dose response curves in which the measure of toxicity will be cell death (via trypan blue exclusion). […]
β-galactosidase activity was measured by addition of 100 μl Tropix Gal-Screen assay reagent (Applied Biosystems, Foster City, Calif.) to about 6 μl lysate in an opaque 96-well plate. […]

SMILES: Cc1ccc(NC(=O)c2ccccc2C(=O)O)cc1C [Compound 1]
- inhibition of FKBP52-enhanced AR function in mammalian cells: consistent from yeast to mammalian cells
